Reference: patent publication US10196356B2, “Mixed disulfide conjugates of thienopyridine compounds and uses thereof” (The Regents of the University of Michigan, priority 2013, dated 2019)

Key:
platelets = assay: Platelet aggregation assay with conjugates pre-incubated with GSH (Example III); format: cell-based, rabbits; conditions: 5 μM ADP; for inhibition of platelet aggregation: conjugate incubated with 1 mM GSH 37° C. 30 min, compared with negative control without conjugate
Procedure: Approximately 20 ml blood was drawn from rabbits and platelets were collected by centrifugation whereas the supernatants were collected as platelet poor plasma (PPP). Prior to the inhibition assay, the conjugates of Clop-CPT and Tic-NPT were dissolved in 0.5 ml PPP and incubated with 1 mM GSH at 37° C. for 30 min to produce the active metabolite. The platelets were then re-suspended gently in the PPP containing the active metabolite. After incubation at 37° C. for one hour, platelet aggregation was initiated by the addition of 5 μM of the agonist ADP. Platelet aggregation was then recorded using an aggregometer.

[1] = system: platelets (P2Y12 receptor); assay: Ex vivo anti-platelet activity of the mixed disulfide conjugates (ADP-induced aggregation, aggregometer); format: cell-based, New Zealand white rabbits; conditions: 10 μM ADP; for inhibition of platelet aggregation, conjugate itself: not treated with GSH
Procedure: The mixed disulfide conjugates were prepared and purified from the reaction mixtures in the presence of 0.3 mM CPT and NPT, along with three control samples containing either 1 mM GSH, no thiol reductant or no G6PD. All samples were re-suspended in 0.5 ml PPP, some of which were treated to 1 mM GSH to release the AM. Platelet aggregation was initiated by the addition of 10 μM ADP and recorded with an aggregometer. The percentage of aggregation was normalized to that of PRP and averaged over four separate measurements. For details, see Materials and Methods. Legend: PRP, untreated platelet-rich plasma; GSH, 1 mM GSH in PRP; −G6PD, metabolites produced in the absence of G6PD; —SH, metabolites produced in the absence of any thiol reductants; GSH, metabolites produced in the presence of 1 mM GSH; CPT, metabolites produced in the presence of 0.3 mM CPT; CPT+GSH, metabolites produced in the presence of 0.3 mM CPT and then treated with 1 mM GSH; NPT, metabolites produced in the presence of 0.3 mM NPT; NPT+GSH, metabolites produced in the presence of 0.3 mM NPT and then treated with 1 mM GSH.
In order to generate sufficient quantities of the mixed disulfide conjugates, the metabolism of 2-oxoclopidogrel was performed in 2-ml reaction mixtures containing 1 mg/ml HLM, 0.1 mM 2-oxoclopidogrel, the NADPH-regenerating system, and 0.3 mM CPT or NPT or 1 mM GSH. The reaction was initiated by the addition of 10 units G6PD and incubated at 37° C. for 50 min. Two control samples were prepared in parallel. […] After an incubation of 50 min, the reaction mixtures were centrifuged at 13,000×g to remove the HLMs. The supernatants were loaded onto SPE C18 cartridges to enrich the mixed disulfide conjugates. After extensive washing with water to remove salts and other water-soluble metabolites, the conjugate samples were eluted with 2 ml of methanol. The methanolic fractions were dried using a Speedvac concentrator and the dried samples were then re-suspended in 1 ml of platelet-poor plasma (PPP). Prior to the anti-platelet activity assays, the re-suspended conjugates were divided into two equal volumes (0.5 ml each), one of which was treated with 1 mM GSH at 37° C. for 30 min to generate the AM. Both samples were then placed on ice until use.
The procedures used to determine ex vivo anti-platelet activity were previously reported (see, e.g., Abell L M and Liu E C (2011) J Pharm Exp Ther 339(2):589-596).
Male New Zealand white rabbits (2.2-2.9 kg) were used as blood donors. Whole blood was drawn from a central ear artery into a plastic syringe containing 3.7% sodium citrate as the anticoagulant (1:10 volume ratio of citrate to blood). A whole blood cell count was determined with a Medonic CA620 hematology analyzer (Clinical Diagnostic Solutions, Inc., Plantation, Fla., USA). Platelet-rich plasma (PRP), the supernatant present after centrifugation of whole blood at 100×g for 10 min, was diluted with PPP to achieve a platelet count of approximately 300,000/μl. Platelet-poor plasma was prepared by centrifuging the remaining blood at 1,500×g for 10 min and discarding the bottom cellular layer. The diluted PRP was divided into 0.5 ml samples, centrifuged again at 170×g for 10 mins, and the resulting supernatant was discarded. The platelet pellets were re-suspended in platelet-poor plasma containing the various chemical inhibitors prepared as described previously and incubated with gentle shaking at 37° C. for 60 min to modify the P2Y12 receptor. Ex vivo platelet aggregation was assessed by established nephelometric methods with the use of a 4-channel aggregometer (BioData PAP-4; BioData Corp., Horsham, Pa., USA) by recording the increase in light transmission through a stirred suspension of PRP maintained at 37° C. Platelet aggregation was induced with ADP (10 μM). A subaggregatory concentration of epinephrine (550 nM) was used to prime the platelets before addition of the agonist.

[2] = Kinetics for the reduction of the mixed disulfide conjugates of clopidogrel by GSH (conversion to the AM); format: in vitro ADME; conditions: for first order rate constant for the loss of the mixed disulfide conjugate: 0.2 mg/ml cytosol, 37° C.; for second order rate constant for the loss of the conjugate: equivalent from pseudo first order with 1 mM GSH, with cytosol
Procedure: The mixed disulfide conjugates were prepared from the reaction mixtures containing 1 mg/ml HLM, 0.1 mM 2-oxoclopidogrel, the NADPH-regenerating system and various thiol reductants and purified using SPE C18 cartridges as described in Materials and Methods. The purified conjugates were then mixed with 1 mM GSH and 0.2 mg/ml cytosol (when present). The conjugate remaining and the AM formed were analyzed using LC-MS/MS. Legend: (A) reduction of the conjugates of BME (◯), CPT (▪), NAC (▾), DFT (▴), and NPT (□) by 1 mM GSH in the presence of 0.2 mg/ml cytosol. (B) reduction of the CPT conjugate by 1 mM GSH in the presence and absence of 0.2 mg/ml cytosol. Legend: (◯), formation of AM in the absence of cytosol; (Δ), formation of the AM in the presence of cytosol; (●), reduction of the conjugate in the absence of cytosol; (▴), reduction of the conjugate in the presence of cytosol. The solid and dashed lines are non-linear curve fittings to a single exponential function.
To examine the reactivity of the mixed disulfide conjugates, the kinetics for the reduction of the mixed disulfide conjugates by GSH were determined. The mixed disulfide conjugates were generated in 1 ml of 50 mM KPi buffer (pH 7.4) buffer containing 1 mg/ml HLM, 0.1 mM 2-oxoclopidogrel and 0.3 or 1 mM thiol reductants. The reaction was incubated at 37° C. for 50 min after initiated by the addition of G6PD. The reaction mixture was then centrifuged at 13,000×g to remove the HLMs and the supernatant was loaded to a pre-conditioned SPE cartridge (C18, 100 mg/1 ml, Agilent Technologies, CA) and the mixed disulfide conjugate was eluted with 2 ml of methanol. The eluent was then dried using a Speedvac concentrator and the dried sample was stored at −80° C. until use. Prior to the kinetic measurements, the dried samples were first re-dissolved in 0.5 ml of 50 mM KPi buffer (pH 7.4) and then equilibrated at 37° C. for 5 min. Small aliquots (1-5 μl) of stock GSH and cytosol (when present) solutions were added to the conjugate samples at 1 mM and 0.2 mg/ml, respectively, to initiate the thiol-disulfide exchange reaction. At designated times, an aliquot of 50 μl of the reaction mixture was withdrawn and mixed with 25 μl of 10% acetic acid in acetonitrile to terminate the thiol-disulfide exchange reaction. The t=0 sample was prepared immediately prior to the addition of GSH. The amounts of the mixed disulfide conjugates and the AM were analyzed using LC-MS/MS as described above.

[3] = conjugate treated with 1 mM GSH 37° C. 30 min, normalized to PRP
[4] = 1 mM GSH, in the absence of cytosol
[5] = 1 mM GSH, in the presence of cytosol (FIG. 5B)

O=C(O)/C=C1/CN(Cc2ccccc2Cl)CCC1SSc1ncccc1[N+](=O)[O-] (stereo not drawn) [Tic-NPT, (Z)-2-(1-(2-chlorobenzyl)-4-((3-nitropyridin-2-yl)disulfanyl)piperidin-3-ylidene)acetic acid]
inhibition of platelet aggregation (platelets): approximately 60%

COC(=O)C(c1ccccc1Cl)N1CCC(SSc2ncccc2[N+](=O)[O-])C(=CC(=O)O)C1 (stereo not drawn) [NPT conjugate]
inhibition of platelet aggregation [1, 3]: ~70%
inhibition of platelet aggregation, conjugate itself ([1]; normalized to PRP): did not inhibit platelet aggregation
first order rate constant for the loss of the mixed disulfide conjugate ([2]; 1 mM GSH): 0.13 min⁻¹
second order rate constant for the loss of the conjugate [2]: 2.2 M⁻¹ s⁻¹

COC(=O)[C@H](c1ccccc1Cl)N1CCC(SSc2cc(C)oc2C)C(=CC(=O)O)C1 (stereo partly drawn) [DFT conjugate]
first order rate constant for the loss of the mixed disulfide conjugate ([2]; 1 mM GSH): 1.65 min⁻¹
second order rate constant for the loss of the conjugate [2]: 28 M⁻¹ s⁻¹

COC(=O)[C@H](c1ccccc1Cl)N1CCC(S)/C(=C\C(=O)O)C1 (stereo partly drawn) [AM, reference compound]
inhibition of platelet aggregation ([1]; sample from HLM reaction mixture containing 1 mM GSH (AM, estimated 1-4 μM)): ~60%
level of inhibition of platelet aggregation relative to the conjugates (platelets; positive control: active metabolite generated from HLMs): approximately the same

COC(=O)[C@H](c1ccccc1Cl)N1CCC(SSCCO)C(=CC(=O)O)C1 (stereo partly drawn) [BME conjugate]
first order rate constant for the loss of the mixed disulfide conjugate ([2]; 1 mM GSH): 0.07 min⁻¹
conjugate remaining after incubation ([2]; 40 min, 1 mM GSH, cytosol): ~50%
second order rate constant for the loss of the conjugate [2]: 1.2 M⁻¹ s⁻¹

COC(=O)C(c1ccccc1Cl)N1CCC(SSCC(NC(C)=O)C(=O)O)C(=CC(=O)O)C1 (stereo not drawn) [NAC conjugate]
first order rate constant for the loss of the mixed disulfide conjugate ([2]; 1 mM GSH): 0.43 min⁻¹
second order rate constant for the loss of the conjugate [2]: 7.2 M⁻¹ s⁻¹

COC(=O)C(c1ccccc1Cl)N1CCC(SSc2ccc(Cl)nn2)/C(=C\C(=O)O)C1 (stereo not drawn) [Clop-CPT]
inhibition of platelet aggregation [1, 3]: ~50%
inhibition of platelet aggregation, conjugate itself ([1]; normalized to PRP): did not inhibit platelet aggregation
first order rate constant for the loss of the mixed disulfide conjugate ([2]; 1 mM GSH): 0.79 min⁻¹
rate constant for the formation of the AM [2, 4]: 0.35 min⁻¹
rate constant for the reduction of the conjugate [2, 4]: 0.39 min⁻¹
rate constant for the formation of the AM [2, 5]: 0.50 min⁻¹
rate constant for the reduction of the conjugate [2, 5]: 0.73 min⁻¹
second order rate constant for the loss of the conjugate [2]: 13 M⁻¹ s⁻¹
inhibition of platelet aggregation (platelets): approximately 60%

COC(=O)[C@H](c1ccccc1Cl)N1CCC2SC(=O)C=C2C1 (stereo partly drawn) [2-oxoclopidogrel, reference compound]
inhibition of platelet aggregation ([1]; −G6PD control (non-metabolite components of the reaction mixture)): did not inhibit platelet aggregation
